{"source": "patent US20060069132A1", "about": "“Azolecarboxamide herbicides” (priority 2004, published 2006)", "key": {"wheat": {"tested_on": "wheat", "assay": "Test B postemergence herbicide test", "format": "in vivo, Triticum aestivum", "set-up": "key to Wheat plant response rating: 0 = no effect, 100 = complete control", "method_in_brief": "(§1)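 Formulated test chemicals went onto postemergence plants measuring 2 to 18 cm, at one to four leaves. For the paddy assay, species had reached two leaves. Scoring took place 13–15 days later by eye, relative to untreated plants, using 0 for no effect up to 100 for full control.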"}, "rice [1]": {"tested_on": "rice", "assay": "Test B flooded paddy test", "format": "in vivo, Oryza sativa", "conditions": "1000 g ai/ha, scale 0 to 100 (0 no effect, 100 complete control)", "method_in_brief": "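Visual ratings, 0 (no effect) to 100 (complete control), made versus controls after 13–15 d greenhouse. Paddy plants treated at 2-leaf stage; postemergence plants at 1- to 4-leaf stage, 2–18 cm tall.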"}, "ducksalad [2]": {"tested_on": "ducksalad", "assay": "Test C flooded paddy test", "format": "in vivo, Heteranthera limosa"}, "Surinam grass": {"tested_on": "Surinam grass", "assay": "Test B pre-/postemergence herbicide test", "format": "in vivo, Urochloa decumbens", "conditions": "for Surinam Grass plant response rating: scale 0 (no effect) to 100 (complete control)", "method_in_brief": "(§2)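 Seeds were planted and treated preemergence with compounds formulated in a non-phytotoxic solvent mixture containing surfactant, while plants at the 1- to 4-leaf stage (2 to 18 cm) received postemergence sprays. Flooded paddy plants were grown to the 2-leaf stage. After 13 to 15 days in a greenhouse, injury was visually rated 0–100 against untreated controls.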"}, "giant foxtail": {"tested_on": "giant foxtail", "assay": "Test B pre-/postemergence herbicide test", "format": "in vivo, Setaria faberi", "conditions": "for Foxtail, Giant plant response rating: scale 0 (no effect) to 100 (complete control)", "method_in_brief": "as §2"}, "blackgrass": {"tested_on": "blackgrass", "assay": "Test B postemergence herbicide test", "format": "in vivo, Alopecurus myosuroides", "conditions": "scale 0 (no effect) to 100 (complete control)", "method_in_brief": "as §1"}, "barnyardgrass [3]": {"tested_on": "barnyardgrass", "assay": "Test C flooded paddy test", "format": "in vivo, Echinochloa crus-galli", "method_in_brief": "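Greenhouse test with a 12–14 day hold after application and visual comparison with controls. Emerged plants were 1- to 4-leaf stage (2–18 cm) when sprayed postemergence, and the paddy barnyardgrass was at 2 leaves under flooded conditions. 100 = complete control.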"}, "barnyardgrass [4]": {"tested_on": "barnyardgrass", "assay": "Test B pre-/postemergence herbicide test", "format": "in vivo, Echinochloa crus-galli", "conditions": "for Barnyardgrass plant response rating: scale 0 (no effect) to 100 (complete control)", "method_in_brief": "(§3)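 Plants compared with untreated controls 13–15 days post-treatment and given a visual 0–100 injury score. Applications: preemergence to seeds; postemergence at 1- to 4-leaf (2–18 cm); paddy species flooded, 2-leaf stage. Vehicle non-phytotoxic, surfactant included.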"}, "lambsquarters": {"tested_on": "lambsquarters", "assay": "Test B pre-/postemergence herbicide test", "format": "in vivo, Chenopodium album", "conditions": "for Lambsquarters plant response rating: scale 0 (no effect) to 100 (complete control)", "method_in_brief": "as §2"}, "cocklebur": {"tested_on": "cocklebur", "assay": "Test B pre-/postemergence herbicide test", "format": "in vivo, Xanthium strumarium", "conditions": "for Cocklebur plant response rating: scale 0 (no effect) to 100 (complete control)", "method_in_brief": "as §3"}, "morningglory": {"tested_on": "morningglory", "assay": "Test B pre-/postemergence herbicide test", "format": "in vivo, Ipomoea coccinea", "conditions": "for Morningglory plant response rating: scale 0 (no effect) to 100 (complete control)", "method_in_brief": "as §3"}, "barnyardgrass [5]": {"tested_on": "barnyardgrass", "assay": "Test B flooded paddy test", "format": "in vivo, Echinochloa crus-galli", "conditions": "1000 g ai/ha, scale 0 to 100 (0 no effect, 100 complete control)", "method_in_brief": "as §1"}, "[6]": {"tested_on": "small flower umbrella sedge", "assay": "Test B flooded paddy test", "format": "in vivo, Cyperus difformis", "conditions": "1000 g ai/ha, scale 0 to 100 (0 no effect, 100 complete control)", "method_in_brief": "as §1"}, "wild oat": {"tested_on": "wild oat", "assay": "Test B postemergence herbicide test", "format": "in vivo, Avena fatua", "conditions": "scale 0 (no effect) to 100 (complete control)", "method_in_brief": "as §1"}, "[7]": {"tested_on": "smallflower umbrella sedge", "assay": "Test C flooded paddy test", "format": "in vivo, Cyperus difformis"}, "large crabgrass": {"tested_on": "large crabgrass", "assay": "Test B pre-/postemergence herbicide test", "format": "in vivo, Digitaria sanguinalis", "conditions": "for Crabgrass, Large plant response rating: scale 0 (no effect) to 100 (complete control)", "method_in_brief": "as §2"}, "corn": {"tested_on": "corn", "assay": "Test B pre-/postemergence herbicide test", "format": "in vivo, Zea mays", "conditions": "for Corn plant response rating: scale 0 (no effect) to 100 (complete control)", "method_in_brief": "as §2"}, "ducksalad [8]": {"tested_on": "ducksalad", "assay": "Test B flooded paddy test", "format": "in vivo, Heteranthera limosa", "conditions": "1000 g ai/ha, scale 0 to 100 (0 no effect, 100 complete control)", "method_in_brief": "as §1"}, "velvetleaf": {"tested_on": "velvetleaf", "assay": "Test B pre-/postemergence herbicide test", "format": "in vivo, Abutilon theophrasti", "conditions": "for Velvetleaf plant response rating: scale 0 (no effect) to 100 (complete control)", "method_in_brief": "as §2"}, "pigweed": {"tested_on": "pigweed", "assay": "Test B pre-/postemergence herbicide test", "format": "in vivo, Amaranthus retroflexus", "conditions": "for Pigweed plant response rating: scale 0 (no effect) to 100 (complete control)", "method_in_brief": "as §2"}, "rice [9]": {"tested_on": "rice", "assay": "Test C flooded paddy test", "format": "in vivo, Oryza sativa", "method_in_brief": "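Injury scored visually against controls on a 0 (no effect) to 100 (complete control) scale, 12 to 14 days after treatment in greenhouse. Flooded paddy plants treated at 2-leaf stage; postemergence plants at 1- to 4-leaf stage, 2 to 18 cm tall.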"}, "[10]": {"conditions": "125 g ai/ha, scale 0 to 100 (0 no effect, 100 complete control)"}, "[11]": {"conditions": "250 g ai/ha, scale of 0 to 100, 0 is no effect, 100 is complete control"}, "[12]": {"conditions": "500 g ai/ha, visual rating after 12 to 14 days, scale 0 to 100 (0 no effect, 100 complete control)"}, "[13]": {"conditions": "125 g ai/ha, 0 is no effect, 100 is complete control, preemergence"}, "[14]": {"conditions": "125 g ai/ha, visual rating, postemergence"}}, "data": [{"molecule": "Cc1nn(C(C)C)nc1C(=O)Nc1cccc(C(=O)N2CC=CC2)c1", "note": "[Compound 406]", "values": [{"measurement": "Wheat plant response rating", "setting": "wheat; 125 g ai/ha, visual rating, scale 0 (no effect) to 100 (complete control), postemergence", "value": 0}, {"measurement": "Wheat plant response rating", "setting": "wheat; 500 g ai/ha, scale 0 to 100, 0 no effect, 100 complete control, preemergence", "value": 40}, {"measurement": "Wheat plant response rating", "setting": "wheat; Postemergence, 500 g ai/ha, scale 0 (no effect) to 100 (complete control)", "value": 0}, {"measurement": "Rice plant response rating", "setting": "rice [1]", "value": 60}, {"measurement": "Ducksalad plant response rating", "setting": "ducksalad [2]; 62 g ai/ha, scale 0 to 100", "value": 20}, {"measurement": "Ducksalad plant response rating", "setting": "ducksalad [2]; [10]", "value": 20}, {"measurement": "Ducksalad plant response rating", "setting": "ducksalad [2]; [11]", "value": 50}, {"measurement": "Plant response rating, Ducksalad", "setting": "ducksalad [2]; [12]", "value": 75}, {"measurement": "Plant response rating (0 to 100 scale), Surinam Grass", "setting": "Surinam grass; [13]", "value": 20}, {"measurement": "Surinam Grass plant response rating", "setting": "Surinam grass; [14]", "value": 0}, {"measurement": "Surinam Grass plant response rating", "setting": "Surinam grass; Postemergence, 500 g ai/ha", "value": 20}, {"measurement": "Plant response rating (0 to 100 scale), Foxtail, Giant", "setting": "giant foxtail; [13]", "value": 20}, {"measurement": "Foxtail, Giant plant response rating", "setting": "giant foxtail; [14]", "value": 30}, {"measurement": "Foxtail, Giant plant response rating", "setting": "giant foxtail; Postemergence, 500 g ai/ha", "value": 40}, {"measurement": "Blackgrass plant response rating", "setting": "blackgrass; [14]", "value": 10}, {"measurement": "Blackgrass plant response rating", "setting": "blackgrass; Postemergence, 500 g ai/ha", "value": 20}, {"measurement": "Barnyardgrass plant response rating", "setting": "barnyardgrass [3]; 62 g ai/ha, scale 0 to 100 (0 no effect, 100 complete control)", "value": 10}, {"measurement": "Barnyardgrass plant response rating", "setting": "barnyardgrass [3]; [10]", "value": 25}, {"measurement": "Barnyardgrass plant response rating", "setting": "barnyardgrass [3]; [11]", "value": 30}, {"measurement": "Plant response rating, Barnyardgrass", "setting": "barnyardgrass [3]; [12]", "value": 40}, {"measurement": "Plant response rating (0 to 100 scale), Barnyardgrass", "setting": "barnyardgrass [4]; [13]", "value": 40}, {"measurement": "Barnyardgrass plant response rating", "setting": "barnyardgrass [4]; [14]", "value": 10}, {"measurement": "Barnyardgrass plant response rating", "setting": "barnyardgrass [4]; Postemergence, 500 g ai/ha", "value": 20}, {"measurement": "Plant response rating (0 to 100 scale), Lambsquarters", "setting": "lambsquarters; [13]", "value": 90}, {"measurement": "Lambsquarters plant response rating", "setting": "lambsquarters; [14]", "value": 50}, {"measurement": "Lambsquarters plant response rating", "setting": "lambsquarters; Postemergence, 500 g ai/ha", "value": 60}, {"measurement": "Plant response rating (0 to 100 scale), Cocklebur", "setting": "cocklebur; [13]", "value": 0}, {"measurement": "Cocklebur plant response rating", "setting": "cocklebur; [14]", "value": 20}, {"measurement": "Cocklebur plant response rating", "setting": "cocklebur; Postemergence, 500 g ai/ha", "value": 50}, {"measurement": "Plant response rating (0 to 100 scale), Morningglory", "setting": "morningglory; [13]", "value": 10}, {"measurement": "Morningglory plant response rating", "setting": "morningglory; [14]", "value": 20}, {"measurement": "Morningglory plant response rating", "setting": "morningglory; Postemergence, 500 g ai/ha", "value": 60}, {"measurement": "Barnyardgrass plant response rating", "setting": "barnyardgrass [5]", "value": 90}, {"measurement": "Sedge, Umbrella plant response rating", "setting": "[6]", "value": 90}, {"measurement": "Oat, Wild plant response rating", "setting": "wild oat; [14]", "value": 0}, {"measurement": "Oat, Wild plant response rating", "setting": "wild oat; Postemergence, 500 g ai/ha", "value": 10}, {"measurement": "Sedge, Umbrella plant response rating", "setting": "[7]; 62 g ai/ha, scale 0 to 100", "value": 75}, {"measurement": "Sedge, Umbrella plant response rating", "setting": "[7]; [10]", "value": 75}, {"measurement": "Sedge, Umbrella plant response rating", "setting": "[7]; [11]", "value": 75}, {"measurement": "Plant response rating, Sedge, Umbrella", "setting": "[7]; [12]", "value": 75}, {"measurement": "Plant response rating (0 to 100 scale), Crabgrass, Large", "setting": "large crabgrass; [13]", "value": 90}, {"measurement": "Crabgrass, Large plant response rating", "setting": "large crabgrass; [14]", "value": 10}, {"measurement": "Crabgrass, Large plant response rating", "setting": "large crabgrass; Postemergence, 500 g ai/ha", "value": 20}, {"measurement": "Plant response rating (0 to 100 scale), Corn", "setting": "corn; [13]", "value": 0}, {"measurement": "Corn plant response rating", "setting": "corn; [14]", "value": 0}, {"measurement": "Corn plant response rating", "setting": "corn; Postemergence, 500 g ai/ha", "value": 10}, {"measurement": "Ducksalad plant response rating", "setting": "ducksalad [8]", "value": 90}, {"measurement": "Plant response rating (0 to 100 scale), Velvetleaf", "setting": "velvetleaf; [13]", "value": 10}, {"measurement": "Velvetleaf plant response rating", "setting": "velvetleaf; [14]", "value": 20}, {"measurement": "Velvetleaf plant response rating", "setting": "velvetleaf; Postemergence, 500 g ai/ha", "value": 30}, {"measurement": "Plant response rating (0 to 100 scale), Pigweed", "setting": "pigweed; [13]", "value": 50}, {"measurement": "Pigweed plant response rating", "setting": "pigweed; [14]", "value": 40}, {"measurement": "Pigweed plant response rating", "setting": "pigweed; Postemergence, 500 g ai/ha", "value": 50}, {"measurement": "Rice plant response rating", "setting": "rice [9]; 62 g ai/ha, scale 0 to 100", "value": 20}, {"measurement": "Rice plant response rating", "setting": "rice [9]; [10]", "value": 35}, {"measurement": "Rice plant response rating", "setting": "rice [9]; [11]", "value": 40}, {"measurement": "Plant response rating, Rice", "setting": "rice [9]; [12]", "value": 45}]}]}
